# “And” between values parts separate entries of the source, which are not always exact repeats. Identical values can stand only once. Like-named read-outs stand apart in the source and are kept apart here.
# How the values were obtained:
# [1] = biological target: T1, human dopamine transporter (hDAT) (Homo sapiens, UniProt Q01959); test: biochemical; assay type: binding
# [2] = biological target: T2, human serotonin transporter (hSERT) (Homo sapiens, UniProt P31645); test: biochemical; conditions: Table 5, read-out: SERT binding affinity Ki
# T2 sequence (P31645 whole entry): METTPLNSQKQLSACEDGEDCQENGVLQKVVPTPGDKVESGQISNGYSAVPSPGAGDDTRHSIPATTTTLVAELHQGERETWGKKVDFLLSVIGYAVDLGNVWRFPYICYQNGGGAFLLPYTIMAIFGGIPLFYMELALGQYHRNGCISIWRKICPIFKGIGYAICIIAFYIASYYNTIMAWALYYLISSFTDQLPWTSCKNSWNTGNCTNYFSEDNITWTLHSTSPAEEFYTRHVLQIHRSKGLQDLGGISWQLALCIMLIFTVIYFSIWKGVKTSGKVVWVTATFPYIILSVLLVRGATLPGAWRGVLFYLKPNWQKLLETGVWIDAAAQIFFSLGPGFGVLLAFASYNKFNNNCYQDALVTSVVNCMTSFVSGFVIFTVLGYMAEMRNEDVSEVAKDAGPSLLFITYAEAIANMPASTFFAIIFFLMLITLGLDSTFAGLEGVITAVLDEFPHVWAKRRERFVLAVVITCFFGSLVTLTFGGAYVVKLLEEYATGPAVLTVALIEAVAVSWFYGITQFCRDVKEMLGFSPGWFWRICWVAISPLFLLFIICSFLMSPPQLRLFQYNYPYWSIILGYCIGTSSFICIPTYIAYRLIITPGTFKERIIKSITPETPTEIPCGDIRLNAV
# [3] = biological target: T1, human dopamine transporter (hDAT); test: cell-based; conditions: for IC50: Reuptake Inhibition [3H]DA IC50, Table 6; for Discrimination Ratios (DR) [3H]DA reuptake/DAT binding: Table 6
# [4] = biological target: T2, human serotonin transporter (hSERT); test: cell-based; conditions: Reuptake Inhibition [3H]5-HT IC50, Table 6
# [5] = biological target: T3, human norepinephrine transporter (hNET) (Homo sapiens, UniProt P23975); test: cell-based; conditions: Table 6; read-out: Reuptake Inhibition [3H]NE IC50
# T3 sequence (P23975 whole entry): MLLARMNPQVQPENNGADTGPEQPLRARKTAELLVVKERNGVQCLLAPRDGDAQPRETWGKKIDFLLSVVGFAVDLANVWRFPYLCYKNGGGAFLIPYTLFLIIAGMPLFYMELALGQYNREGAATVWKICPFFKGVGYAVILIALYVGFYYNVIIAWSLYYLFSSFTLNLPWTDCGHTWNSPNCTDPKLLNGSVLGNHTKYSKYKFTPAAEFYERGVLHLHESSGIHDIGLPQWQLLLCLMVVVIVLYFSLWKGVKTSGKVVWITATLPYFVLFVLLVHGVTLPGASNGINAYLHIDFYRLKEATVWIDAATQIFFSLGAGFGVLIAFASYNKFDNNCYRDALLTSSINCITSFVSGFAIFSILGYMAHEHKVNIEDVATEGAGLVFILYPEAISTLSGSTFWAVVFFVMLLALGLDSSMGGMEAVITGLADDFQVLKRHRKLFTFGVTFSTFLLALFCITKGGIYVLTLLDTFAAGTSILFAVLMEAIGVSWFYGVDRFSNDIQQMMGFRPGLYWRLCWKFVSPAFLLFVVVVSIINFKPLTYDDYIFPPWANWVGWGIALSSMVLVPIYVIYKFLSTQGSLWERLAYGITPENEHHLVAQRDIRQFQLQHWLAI
# D1 receptor = biological target: T4, D1 receptor (Homo sapiens, UniProt P21728); test: D1 receptor binding, LHD1 cells, [3H]SCH 23,390
# T4 construct: expressed in transfected cells; host or cells: LHD1 cells
# T4 sequence (P21728 whole entry): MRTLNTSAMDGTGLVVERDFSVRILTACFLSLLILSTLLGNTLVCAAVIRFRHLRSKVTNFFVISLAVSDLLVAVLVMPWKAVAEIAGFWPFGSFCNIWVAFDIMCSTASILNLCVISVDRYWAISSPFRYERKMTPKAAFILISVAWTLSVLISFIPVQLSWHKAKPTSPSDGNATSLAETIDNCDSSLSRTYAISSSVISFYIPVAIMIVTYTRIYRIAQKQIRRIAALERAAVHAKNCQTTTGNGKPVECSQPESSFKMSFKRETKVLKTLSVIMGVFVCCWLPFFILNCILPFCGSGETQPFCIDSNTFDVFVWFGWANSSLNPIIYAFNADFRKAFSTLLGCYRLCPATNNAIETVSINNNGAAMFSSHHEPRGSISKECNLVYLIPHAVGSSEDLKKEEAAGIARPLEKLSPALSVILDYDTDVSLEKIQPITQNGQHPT
# D2 receptor [6] = biological target: T5, D2 receptor (Homo sapiens, UniProt P14416); test: D2 receptor binding, CHOp- cells, [3H]YM-09151-2
# T5 construct: expressed in transfected cells; host or cells: CHOp- cells (CHOp-D2)
# T5 sequence (P14416 whole entry): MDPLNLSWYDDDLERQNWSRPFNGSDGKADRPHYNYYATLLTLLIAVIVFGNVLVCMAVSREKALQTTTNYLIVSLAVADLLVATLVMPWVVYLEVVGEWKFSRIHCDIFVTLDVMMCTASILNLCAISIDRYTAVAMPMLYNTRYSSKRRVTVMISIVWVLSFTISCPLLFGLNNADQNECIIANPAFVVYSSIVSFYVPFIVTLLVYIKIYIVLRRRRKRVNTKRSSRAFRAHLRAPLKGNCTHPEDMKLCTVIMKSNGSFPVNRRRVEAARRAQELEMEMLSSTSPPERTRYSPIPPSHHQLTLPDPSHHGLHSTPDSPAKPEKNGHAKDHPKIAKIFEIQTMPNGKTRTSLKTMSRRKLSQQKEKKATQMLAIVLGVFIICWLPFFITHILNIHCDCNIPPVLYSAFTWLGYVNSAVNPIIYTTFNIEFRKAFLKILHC
# D3 receptor [7] = biological target: T6, D3 receptor (Homo sapiens, UniProt P35462); test: D3 receptor binding, CHOp- cells, [3H]YM-09151-2
# T6 construct: expressed in transfected cells; host or cells: CHOp- cells (CHOp-D3)
# T6 sequence (P35462 whole entry): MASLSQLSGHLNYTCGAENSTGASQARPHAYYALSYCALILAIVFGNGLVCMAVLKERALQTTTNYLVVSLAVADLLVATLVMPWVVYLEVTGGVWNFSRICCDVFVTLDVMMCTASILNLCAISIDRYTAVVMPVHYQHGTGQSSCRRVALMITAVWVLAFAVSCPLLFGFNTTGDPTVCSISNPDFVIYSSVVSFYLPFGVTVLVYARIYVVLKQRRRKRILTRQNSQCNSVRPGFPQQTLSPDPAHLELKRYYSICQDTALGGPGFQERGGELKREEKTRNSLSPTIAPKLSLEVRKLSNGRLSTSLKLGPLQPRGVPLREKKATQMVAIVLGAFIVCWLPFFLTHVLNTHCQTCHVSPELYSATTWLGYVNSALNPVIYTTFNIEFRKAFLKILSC
# 5-HT1A receptor = biological target: T7, 5-HT1A receptor (Homo sapiens, UniProt P08908); test: 5-HT1A receptor binding, HA7 cells, [3H]8-OH-DPAT
# T7 construct: expressed in transfected cells; host or cells: HA7 cells
# T7 sequence (P08908 1-422): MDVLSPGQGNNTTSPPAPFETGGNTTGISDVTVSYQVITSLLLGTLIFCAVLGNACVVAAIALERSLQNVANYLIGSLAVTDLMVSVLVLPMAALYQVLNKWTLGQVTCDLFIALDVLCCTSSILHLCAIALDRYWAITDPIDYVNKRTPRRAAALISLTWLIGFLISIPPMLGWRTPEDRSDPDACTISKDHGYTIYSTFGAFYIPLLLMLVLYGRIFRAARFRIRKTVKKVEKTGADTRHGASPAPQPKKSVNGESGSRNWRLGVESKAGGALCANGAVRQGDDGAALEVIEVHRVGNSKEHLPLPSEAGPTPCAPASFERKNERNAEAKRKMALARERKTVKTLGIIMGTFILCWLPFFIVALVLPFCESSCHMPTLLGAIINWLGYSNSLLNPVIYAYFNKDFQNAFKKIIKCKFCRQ
# 5-HT2A receptor = biological target: T8, 5-HT2A receptor (Rattus norvegicus, UniProt P14842); test: 5-HT2A receptor binding, NIH-3T3-GF6 cells, [3H]ketanserin
# T8 construct: expressed in transfected cells; host or cells: NIH-3T3-GF6 cells
# T8 sequence (P14842 whole entry): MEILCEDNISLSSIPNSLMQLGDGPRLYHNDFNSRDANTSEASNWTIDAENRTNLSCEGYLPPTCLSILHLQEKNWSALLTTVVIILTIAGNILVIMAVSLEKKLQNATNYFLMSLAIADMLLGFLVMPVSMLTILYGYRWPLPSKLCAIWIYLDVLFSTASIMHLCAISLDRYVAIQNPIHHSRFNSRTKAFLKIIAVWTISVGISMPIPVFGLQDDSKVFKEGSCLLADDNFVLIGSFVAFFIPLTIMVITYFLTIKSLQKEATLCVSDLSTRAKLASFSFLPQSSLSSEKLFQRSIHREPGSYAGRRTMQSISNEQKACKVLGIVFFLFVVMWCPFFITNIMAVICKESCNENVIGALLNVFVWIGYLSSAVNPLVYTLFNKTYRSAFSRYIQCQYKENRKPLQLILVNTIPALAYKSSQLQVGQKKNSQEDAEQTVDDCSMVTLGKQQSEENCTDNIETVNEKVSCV
# 5-HT2C receptor = biological target: T9, 5-HT2C receptor (Rattus norvegicus, UniProt P08909); test: 5-HT2C receptor binding, NIH-3T3-P cells, [3H]mesulergine
# T9 construct: expressed in transfected cells; host or cells: NIH-3T3-P cells
# T9 sequence (P08909 33-460): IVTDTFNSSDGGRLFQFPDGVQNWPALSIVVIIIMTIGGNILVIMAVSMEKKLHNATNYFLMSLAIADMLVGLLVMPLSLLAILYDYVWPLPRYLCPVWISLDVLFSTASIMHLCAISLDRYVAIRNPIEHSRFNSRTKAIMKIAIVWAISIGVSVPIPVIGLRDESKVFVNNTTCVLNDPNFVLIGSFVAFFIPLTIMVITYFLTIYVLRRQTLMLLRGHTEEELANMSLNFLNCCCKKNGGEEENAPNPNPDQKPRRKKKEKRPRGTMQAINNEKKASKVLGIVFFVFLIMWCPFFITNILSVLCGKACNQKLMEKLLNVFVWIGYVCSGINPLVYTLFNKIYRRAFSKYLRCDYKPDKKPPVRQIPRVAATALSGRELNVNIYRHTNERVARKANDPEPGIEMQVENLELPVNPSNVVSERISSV
# D2 receptor [8] = biological target: T5, D2 receptor; test: cell-based
# D3 receptor [9] = biological target: T6, D3 receptor; test: Inhibition of quinpirole-stimulated mitogenesis ([3H]thymidine incorporation), CHOp-D3 cells; assay type: cell-based
# male Swiss-Webster mice [10] = test: Locomotor activity, compound alone, 1-h session; assay type: in vivo, mouse
# Protocol: (§1) 3. Locomotor Activity. […] Panels of infrared beams (16 beams) and corresponding photodetectors were located in the horizontal direction along the sides of each activity chamber. […] Just prior to placement in the apparatus, all mice received a saline injection IP. In all studies, horizontal activity (interruption of 1 photocell beam) was measured for 1-h within 10-min periods. Testing was conducted with one mouse per activity chamber. […] Plot the mean (±SEM) maximal stimulant activity (total counts in the 30 min period divided by 3) vs dose. Perform a log10 transformation of the 30 min period average counts for individual subjects to homogenize variances for subsequent analyses. […] Fit the 30 min period average counts across subjects to a function of log10 dose using least-squares curve-fitting analyses (i.e. TableCurve software from Jandel). Estimate the maximum effect from the resultant dose-response curve. […] Determine the ED50 (dose that produces ½ maximal stimulant activity) from a linear regression analysis of the ascending portion (up to the dose that produces a maximal effect) of the curve. […] Plot the mean (±SEM) activity (total counts in the 30 min period divided by 3) vs dose. Perform a log10 transformation of the 30 min period average counts for individual subjects to homogenize variances for subsequent analyses. Conduct an ANOVA and contrast (specified a priori) each dose of the test compound to the vehicle to determine significant (p<0.05) dose effects. Conduct a linear least-squares regression analysis; regress the min period average counts across subjects over the descending portion of the curve against the log10 dose of the test compound. […] Perform a log10 transformation of the 30 min period average counts for individual subjects to homogenize variances for subsequent analyses. […] Conduct a linear least-squares regression analysis; regress the 30 min period average counts across subjects over the descending portion of the curve against the log10 dose of the test compound. […] Locomotor Activity 8-hour time course/dose response study. […] A panel of infrared beams (16 beams) and corresponding photodetectors were located in the horizontal direction along the sides of each activity chamber. A 7.5-W incandescent light above each chamber provided dim illumination. Fans provided an 80-dB ambient noise level within the chamber. […] In all studies, horizontal activity (interruption of photocell beams) was measured for 8-h within 10-min periods, beginning at 0800 hrs (2 hours after lights on). Testing was conducted with one mouse per activity chamber. Compound alone study.
# male Swiss-Webster mice [11] = test: Cocaine/compound interaction study on locomotor activity; assay type: in vivo, mouse; conditions: for Attenuation of cocaine-induced LMA: 20 mg/kg of cocaine; for AD50, dose attenuating cocaine-induced stimulation by 50%: Table 8, ligand-cocaine interaction study, 20 mg/kg cocaine IP
# male Swiss-Webster mice [12] = test: Locomotor activity 8-hour time course/dose response study; conditions: for ED50: Mus musculus, ip, 8 h, read-out: ED50, dose producing 1/2 maximal stimulant activity (S, stimulation); for ME/CME, Maximal Effect/Cocaine Maximal Effect / mode of action / ID50, dose producing 1/2 maximal depressant activity (I, inhibition): Table 9, 8 hours; for mode of action: ligand alone study; for ID50, dose producing 1/2 maximal depressant activity (I, inhibition): mouse, IP
# Protocol: as §1
# [13] = biological target: T3, human norepinephrine transporter (hNET); test: biochemical; conditions: Table 5; [125I]RTI-55; oxalate salts; read-out: NET binding affinity Ki
# T1 sequence (Q01959 whole entry): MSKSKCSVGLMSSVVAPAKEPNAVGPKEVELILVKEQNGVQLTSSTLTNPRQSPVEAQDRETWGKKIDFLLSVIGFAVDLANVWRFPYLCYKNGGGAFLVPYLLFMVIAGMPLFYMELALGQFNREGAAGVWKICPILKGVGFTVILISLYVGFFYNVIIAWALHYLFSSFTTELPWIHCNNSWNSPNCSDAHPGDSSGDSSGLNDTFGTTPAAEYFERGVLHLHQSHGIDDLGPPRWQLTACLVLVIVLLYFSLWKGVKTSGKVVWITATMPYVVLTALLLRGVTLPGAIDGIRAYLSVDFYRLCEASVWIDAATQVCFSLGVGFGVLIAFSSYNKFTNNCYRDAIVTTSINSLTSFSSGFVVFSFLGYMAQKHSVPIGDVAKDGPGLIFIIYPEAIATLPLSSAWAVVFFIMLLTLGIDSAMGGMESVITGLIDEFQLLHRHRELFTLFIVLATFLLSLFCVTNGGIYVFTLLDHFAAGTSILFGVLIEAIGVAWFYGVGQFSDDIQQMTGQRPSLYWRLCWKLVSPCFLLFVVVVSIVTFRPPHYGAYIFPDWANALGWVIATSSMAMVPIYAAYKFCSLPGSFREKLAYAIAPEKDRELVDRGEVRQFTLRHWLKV
SMILES,Binding Ratios NET/DAT ([1]; Table 5),Binding Ratios SERT/DAT ([1]; Table 5),IC50 [3],Discrimination Ratios (DR) [3H]DA reuptake/DAT binding [3],IC50 [5],Ki (5-HT1A receptor),IC50 (D3 receptor [9]),Attenuation of cocaine-induced LMA (male Swiss-Webster mice [11]),"AD50, dose attenuating cocaine-induced stimulation by 50% (male Swiss-Webster mice [11])",ED50 (male Swiss-Webster mice [12]),"ME/CME, Maximal Effect/Cocaine Maximal Effect (male Swiss-Webster mice [12])",mode of action (male Swiss-Webster mice [12]),"ID50, dose producing 1/2 maximal depressant activity (I, inhibition) (male Swiss-Webster mice [12])",further results
"Fc1ccc(C(OCCCCN2CCNC(c3ccccc3)C2)c2ccc(F)cc2)cc1 (stereo not drawn) [Compound 28, 2-Phenyl-4-[4-[bis(4-fluorophenyl)methoxy]butyl]piperazine]",49.9,19.6,550 ± 140 nM,144 and 144.4,290 ± 50 nM,2250 ± 359 nM,629 nM,Attenuation,50.27 mg/kg,7.6 mg/kg,0.30,biphasic,"36.4/I^e,f mg/kg","Ki ([1]; Table 5, [125I]RTI-55, oxalate salts, read-out: DAT binding affinity Ki): 3.81 ± 0.84 nM; Ki ([2]; [125I]RTI-55, oxalate salts): 0.0746 ± 0.0058 µM; IC50 [4]: 0.7 ± 0.26 µM; Ki (D1 receptor; Table 7, LHD1 cells, [3H]SCH 23,390, read-out: D1 Affinity Ki): 6150 ± 541 nM; Ki (D2 receptor [6]; Table 7, CHOp- cells, [3H]YM-09151-2, read-out: D2 Affinity Ki): 715 ± 404 nM; Ki (D3 receptor [7]; Table 7, CHOp- cells, [3H]YM-09151-2, read-out: D3 Affinity Ki): 677 ± 262 nM; Ki (5-HT2A receptor; Table 7, rat receptors, NIH-3T3-GF6 cells, [3H]ketanserin, read-out: 5-HT2A Affinity Ki): 1490 ± 352 nM; Ki (5-HT2C receptor; Table 7, rat receptors, [3H]mesulergine, read-out: 5-HT2C Affinity Ki): 6700 ± 437 nM; IC50 (D2 receptor [8]; read-out: D2 Antagonist activity IC50): 164 nM; ED50 (male Swiss-Webster mice [10]; Mus musculus, ip, 1 h, read-out: ED50, dose producing 1/2 maximal stimulant activity (S, stimulation)): 1.52 mg/kg; mode of action (male Swiss-Webster mice [10]; Table 8, ligand alone study): monophasic; ME/CME, Maximal Effect/Cocaine Maximal Effect (male Swiss-Webster mice [10]; Table 8, mouse locomotor activity): 0.30; effect on spontaneous LMA (male Swiss-Webster mice [10]; mouse, compound alone): significant increase"
"Fc1ccc(C(OCCCCN2CCN(c3ccccn3)CC2)c2ccc(F)cc2)cc1 [Compound 39, 1-[4-[Bis(4-fluorophenyl)methoxy]butyl]-4-pyridin-2-ylpiperazine]",12.3,>1190,386 ± 55 nM,46,2230 ± 710 nM,53.5 ± 8.62 nM,955 nM,Attenuation,62.1 mg/kg,38 mg/kg,>0.35,biphasic,"60.3/I^e,i mg/kg","Ki [1]: 8.4 ± 4 nM; Ki ([2]; bound given in μM): > 10 µM; Ki [13]: 103 ± 37 nM; IC50 ([4]; bound given in μM): > 10 µM; Ki (D1 receptor): 597 ± 19.4 nM; Ki (D2 receptor [6]): 282 ± 67.7 nM; Ki (D3 receptor [7]): 453 ± 163 nM; binding for 5-HT1A (5-HT1A receptor; Table 7): moderate binding; Ki (5-HT2A receptor): 498 ± 47.9 nM; Ki (5-HT2C receptor): 3450 ± 1080 nM; D2 functional activity, marked agonist (footnote d) (D2 receptor [8]; Table 7, CHOp-D2 cells, [3H]thymidine incorporation, agonist): 196 ± 62.8^d nM; ED50, dose producing 1/2 maximal stimulant activity (S, stimulation) (male Swiss-Webster mice [10]; Table 8, mouse, IP, ligand alone, 1-h session): no activity"

# Source: patent publication US8772319B2 (priority 2004, dated 2014)
